Assay results taken from patent US10238667B2, “Vitamin D receptor/SMAD genomic circuit gates fibrotic response” (Salk Institute for Biological Studies, priority 2013, dated 2019).

Test system: primary rat HSCs
Test: Microarray expression profiling of TGFβ1 and TGFβ1+1,25(OH)2D3-treated HSCs
Format: cell-based
Conditions: 24 h
Text: VDR Signaling Suppresses TGFβ-induced Pro-Fibrotic Genes. […] Euclidean clustering of both rows and columns using log2 transformed microarray expression data, n=2 per treatment group. […] Data represents the mean±SEM of at least three independent experiments performed in triplicate. Asterisks denote statistically significant differences (Student's unpaired t-test, *p<0.05, **p<0.01). HSCs were isolated from 10-week old male C57BL/6J mice and Wistar rats by in situ pronase, collagenase perfusion and single-step Histogenz gradient as previously reported (Hendriks et al., 1985; Knook et al., 1982). Isolated HSCs were cultured in DMEM (Mediatech) containing 20% FBS (Hyclone) on 6-well plates for 40 hours prior to end-point assays. Total RNA from primary rat or mouse HSCs was isolated using the RNeasy mini kit (Qiagen) according to standard protocols. RNA integrity and quality was assessed using the Agilent Bioanalyzer and prepared for hybridization to Illumina rat or mouse gene expression arrays according to standard Illumina protocols. Feature extraction was performed using the Illumina GenomeStudio software. Normalization and identification of differentially expressed genes from biological duplicates was performed using […] at http://sasquatch.ucsd.edu/vampire/.

[1] = TGFβ1 1 ng/ml ± 1,25(OH)2D3 100 nM

## C=C1/C(=C\C=C2/CCC[C@]3(C)C([C@H](C)CCCC(C)(C)O)CC[C@@H]23)C[C@@H](O)C[C@@H]1O (stereo partly drawn) [1,25(OH)2D3, 1α,25 dihydroxyvitamin D3]
TGFβ1 1 ng/ml + 1,25(OH)2D3 100 nM, Control 3963.4, TGFβ 9788.1
  LOC499078 VitD + TGFbeta AVG signal: 2325
TGFβ1 1 ng/ml + 1,25(OH)2D3 100 nM, Control 3986, TGFβ 9174
  Glipr1_predict VitD + TGFbeta AVG signal: 1894
TGFβ1 1 ng/ml + 1,25(OH)2D3 100 nM, Control 4057.3, TGFβ 7133.8
  Sh3kbp1 VitD + TGFbeta AVG signal: 1618
TGFβ1 1 ng/ml + 1,25(OH)2D3 100 nM, Control 4402.2, TGFβ 10637
  Ms4a7_predict VitD + TGFbeta AVG signal: 1708
TGFβ1 1 ng/ml + 1,25(OH)2D3 100 nM, Control 4496.5, TGFβ 12465
  LOC310190 VitD + TGFbeta AVG signal: 2594
TGFβ1 1 ng/ml + 1,25(OH)2D3 100 nM, Control 4506.5, TGFβ 5580.6
  Itgb2 VitD + TGF β Avg Signal: 4858.4
TGFβ1 1 ng/ml + 1,25(OH)2D3 100 nM, Control 4712.3, TGFβ 10527
  Nucb2 VitD + TGFbeta AVG signal: 2733
TGFβ1 1 ng/ml + 1,25(OH)2D3 100 nM, Control 4721.8, TGFβ 13843
  RT1-Ba VitD + TGFbeta AVG signal: 3390
TGFβ1 1 ng/ml + 1,25(OH)2D3 100 nM, Control 5658, TGFβ 19362
  LOC312102 VitD + TGFbeta AVG signal: 4469
TGFβ1 1 ng/ml + 1,25(OH)2D3 100 nM, Control 5856.6, TGFβ 12798
  Ptpro VitD + TGFbeta AVG signal: 2551
TGFβ1 1 ng/ml + 1,25(OH)2D3 100 nM, Control 6230.8, TGFβ 11228
  Dcir3 VitD + TGFbeta AVG signal: 1354
TGFβ1 1 ng/ml + 1,25(OH)2D3 100 nM, Control 6494.5, TGFβ 16466
  Oplah VitD + TGFbeta AVG signal: 1922
TGFβ1 1 ng/ml + 1,25(OH)2D3 100 nM, Control 8050.9, TGFβ 10104.2
  Itgb1 VitD + TGF β Avg Signal: 7987.9
TGFβ1 1 ng/ml + 1,25(OH)2D3 100 nM, Control 8370.4, TGFβ 15560.3
  Mmp14 VitD + TGF β Avg Signal: 14980.5
TGFβ1 1 ng/ml + 1,25(OH)2D3 100 nM, Control 10124.0, TGFβ 13471.4
  Timp1 VitD + TGF β Avg Signal: 9101.3
TGFβ1 1 ng/ml + 1,25(OH)2D3 100 nM, Control 10532.3, TGFβ 20216.0
  Ctgf VitD + TGF β Avg Signal: 9730.1
TGFβ1 1 ng/ml + 1,25(OH)2D3 100 nM, Control 10691.1, TGFβ 24123.0
  Col1a2 VitD + TGF β Avg Signal: 9593.3
TGFβ1 1 ng/ml + 1,25(OH)2D3 100 nM, Control 12345, TGFβ 21779
  Ms4a6b VitD + TGFbeta AVG signal: 5158
TGFβ1 1 ng/ml + 1,25(OH)2D3 100 nM, Control 16420, TGFβ 32328
  Ctsc VitD + TGFbeta AVG signal: 6319
[1]
  Bmp2 TGFb/TGFB + VitD3: 5.3 NM_017178.1 Rattus norvegicus bone
  Cacnb3 TGFb/TGFB + VitD3: 6.0 NM_012828.1 Rattus norvegicus calcium channel
  Ccl12_predicte TGFb/TGFB + VitD3: 5.5 XM_213425.2 PREDICTED: Rattus norvegicus
  Ccr5 TGFb/TGFB + VitD3: 12.9 NM_053960.2 Rattus norvegicus chemokine (C-
  Cdh1 TGFb/TGFB + VitD3: 4.4 NM_031334.1 Rattus norvegicus cadherin 1
  Chst1_predict TGFb/TGFB + VitD3: 12.7 XM_575178.1 PREDICTED: Rattus norvegicus
  Ctsc TGFb/TGFB + VitD3: 5.1 NM_017097.1 Rattus norvegicus cathepsin C
  Cysltr1 TGFb/TGFB + VitD3: 4.4 NM_053641.1 Rattus norvegicus cysteinyl
  Dcir2 TGFb/TGFB + VitD3: 4.6 XM_579146.1 PREDICTED: Rattus norvegicus
  Dcir3 TGFb/TGFB + VitD3: 8.3 XM_579150.1 PREDICTED: Rattus norvegicus
  Dsipi TGFb/TGFB + VitD3: 4.0 NM_031345.1 Rattus norvegicus delta sleep
  Emr1 TGFb/TGFB + VitD3: 5.9 XM_579174.1 PREDICTED: Rattus norvegicus
  Fchsd2_predic TGFb/TGFB + VitD3: 4.9 XM_218965.3 PREDICTED: Rattus norvegicus
  Gas7 TGFb/TGFB + VitD3: 4.9 NM_053484.1 Rattus norvegicus growth arrest
  Glipr1_predict TGFb/TGFB + VitD3: 4.8 XM_576223.1 PREDICTED: Rattus norvegicus GLI
  Hod TGFb/TGFB + VitD3: 5.1 NM_133621.2 Rattus norvegicus homeobox only
  LOC304349 TGFb/TGFB + VitD3: 7.1 XM_221990.3 PREDICTED: Rattus norvegicus
  LOC305269 TGFb/TGFB + VitD3: 4.0 XM_223309.3 PREDICTED: Rattus norvegicus
  LOC310190 TGFb/TGFB + VitD3: 4.8 XM_226886.3 PREDICTED: Rattus norvegicus
  LOC312102 TGFb/TGFB + VitD3: 4.3 XM_231461.3 PREDICTED: Rattus norvegicus
  LOC361699 TGFb/TGFB + VitD3: 3.8 XM_341982.2 PREDICTED: Rattus norvegicus
  LOC366205 TGFb/TGFB + VitD3: 6.6 XM_345441.2 PREDICTED: Rattus norvegicus
  LOC366608 TGFb/TGFB + VitD3: 4.4 XM_345665.2 PREDICTED: Rattus norvegicus
  LOC497796 TGFb/TGFB + VitD3: 5.1 XM_579296.1 PREDICTED: Rattus norvegicus
  LOC498741 TGFb/TGFB + VitD3: 6.1 XM_574019.1 PREDICTED: Rattus norvegicus
  LOC498751 TGFb/TGFB + VitD3: 5.1 XM_574030.1 PREDICTED: Rattus norvegicus
  LOC499078 TGFb/TGFB + VitD3: 4.2 XM_574362.1 PREDICTED: Rattus norvegicus
  LOC499100 TGFb/TGFB + VitD3: 3.9 XM_218456.3 PREDICTED: Rattus norvegicus
  LOC499272 TGFb/TGFB + VitD3: 4.4 XM_579937.1 PREDICTED: Rattus norvegicus
  LOC499356 TGFb/TGFB + VitD3: 11.0 XM_574669.1 PREDICTED: Rattus norvegicus
  LOC501570 TGFb/TGFB + VitD3: 4.6 XM_576974.1 PREDICTED: Rattus norvegicus
  LOC502904 TGFb/TGFB + VitD3: 6.7 XM_578406.1 PREDICTED: Rattus norvegicus
  LOC502907 TGFb/TGFB + VitD3: 9.6 XM_578409.1 PREDICTED: Rattus norvegicus
  Ly49si1 TGFb/TGFB + VitD3: 4.6 XM_579297.1 PREDICTED: Rattus norvegicus
  Ly49si2 TGFb/TGFB + VitD3: 4.6 XM_579298.1 PREDICTED: Rattus norvegicus
  Ms4a4a_predi TGFb/TGFB + VitD3: 17.7 XM_342027.1 PREDICTED: Rattus norvegicus
  Ms4a6a_predi TGFb/TGFB + VitD3: 4.5 XM_215145.3 PREDICTED: Rattus norvegicus
  Ms4a6b TGFb/TGFB + VitD3: 4.2 NM_00100697 Rattus norvegicus membrane-
  Ms4a7_predict TGFb/TGFB + VitD3: 6.2 XM_215200.2 PREDICTED: Rattus norvegicus
  Nucb2 TGFb/TGFB + VitD3: 3.9 NM_021663.2 Rattus norvegicus nucleobindin 2
  Oplah TGFb/TGFB + VitD3: 8.6 NM_053904.1 Rattus norvegicus 5-oxoprolinase
  Pcsk1 TGFb/TGFB + VitD3: 7.4 NM_017091.1 Rattus norvegicus proprotein
  Pirb TGFb/TGFB + VitD3: 5.3 NM_031713.1 Rattus norvegicus paired-Ig-like
  Ptprc TGFb/TGFB + VitD3: 4.2 NM_138507.1 Rattus norvegicus protein tyrosine
  Ptpro TGFb/TGFB + VitD3: 5.0 NM_017336.1 Rattus norvegicus protein tyrosine
  RT1-Ba TGFb/TGFB + VitD3: 4.1 XM_579226.1 PREDICTED: Rattus norvegicus
  Sh3kbp1 TGFb/TGFB + VitD3: 4.4 NM_053360.2 Rattus norvegicus SH3-domain
  Slamf9_predic TGFb/TGFB + VitD3: 4.2 XM_213932.2 PREDICTED: Rattus norvegicus
  Stab1_predict TGFb/TGFB + VitD3: 5.6 XM_214279.3 PREDICTED: Rattus norvegicus
  Tmem26_pred TGFb/TGFB + VitD3: 3.8 XM_228108.3 PREDICTED: Rattus norvegicus
